From US12496460B2, “System and method for quantitative dosimetry of photodynamic therapy in skin” (Trustees of Dartmouth College, priority 2020, dated 2025)

Legend:
[1] = system: PpIX fluorescence at AK treatment sites; settings: human, in vivo
Description: Example 2—Human Skin Test Measurement: In this human testing, the system's 100 performance was evaluated on three patients undergoing their standard clinical PDT treatment at the Dartmouth-Hitchcock Dermatology Department for treatment of AKs using Levulan® (Sun Pharma Industries Ltd., Mumbai, India), a 20% ALA solution [see FIG. 2A]. […] The standard procedure involves treatment of a site (e.g. face, scalp, arms, or legs) which is cleaned using ethanol and followed by non-occluded topical application of the ALA; the patient is then transferred to a low-light rest area for a 60-minute incubation period. […] Fluorescence images from a treatment site are gathered before the ALA is applied, at the 60-minute incubation, and post-PDT treatment [see FIG. 2B]. Discomfort levels experienced by the imaged patients were recorded during light irradiation via verbal rating of the pain. The goal of performing dosimeter imaging using the system 100 during treatment is to correlate the measured PpIX accumulation and PDT-induced photobleaching to patient outcomes and generate thresholds that can be used for individualized treatment guidance [see FIG. 2C]. […] Images were pre-processed using Adobe DNG Converter software and analyzed using MATLAB and ImageJ to extract the RAW pixel values. […]

[2] = system: PpIX accumulation in athymic nude mice; settings: mouse, in vivo
Description: Example 1—Preclinical In-vivo Murine Measurements: The nude mouse model was used to examine the system's 100 ability to capture in-vivo production of PpIX. The measurements were performed on five athymic nude mice fed a low-chlorophyll diet to minimize tissue autofluorescence. For imaging, the mice were placed under anesthesia and onto a heated pad to regulate their body temperature; the temperature was monitored using an IR camera (TG165, FLIR Systems Inc.) and kept in the 32° C.-36° C. range. AMELUZ® (Biofontera Inc., Boston, MA), a 10% aminolevulinic acid hydrochloride gel, was topically applied to the backs of the mice as to contain an ALA-applied area and a control area within the field-of-view of the system 100. The mice were kept in a low-light environment to prevent photobleaching of the accumulated PpIX. Images of the mice were taken at 10-minute intervals for the first hour with subsequent images at two and three hours of incubation. The mice were kept under anesthesia during the first hour, placed back in the cage, and briefly placed back under anesthesia for imaging at two and three hours of incubation. The imaging parameters used for these measurements were iOS-generated images with ISO 400 and exposure set to 1/10th sec. The images were processed in ImageJ, where the red pixels were isolated for region-of-interest (ROI) pixel intensity calculation.
In this murine model, it was possible to quantitatively observe the PpIX accumulation in the ALA-applied area as early as 10 minutes with a clear visual accumulation in the 20-30 minute timeframe. In contrast, the control region was relatively flat for the first hour with a moderate increase in fluorescence observed at the two hour and three hour measurements as the mice begin systematic accumulation of the PpIX.

average pixel value (PpIX fluorescence) at 60 min incubation [1]: 21.1±6.1
time at which PpIX accumulation is quantitatively observed in the ALA-applied area ([2]; athymic nude): 10 min
timeframe of clear visual PpIX accumulation ([2]; athymic nude): 20 to 30 min
course of PpIX fluorescence over the three hours of incubation [2]: monotonic increase
SMILES: NCC(=O)CCC(=O)O [ALA, aminolevulinic acid]
